Assay results from patent US4786644A, “1-aryl-3-quinolinecarboxamide” (Hoechst-Roussel Pharmaceuticals Inc., priority 1987, dated 1988).

Assays:
[1] = tested on: phenyl-p-quinone writhing; assay: phenyl-p-quinone writhing assay in mice (analgesic); type: in vivo, mouse (male, Charles River, CD-1); conditions: for Analgesic Activity, % Inhibition of Writhing: mouse, screening dose of 20 mg/kg, s.c.
Experimental: The procedure employed to determine analgetic utility is a modification of the phenyl-p-quinone writhing assay in mice, a standard assay for analgetic activity [Proc. Soc. Exptl. […] The solution is administered to the subject mice intraperitoneally at a dose of 10 ml per kg of body weight. A characteristic "writhe", an inward rotation of one or more feet with twisting and turning of the trunk, drawing in of the abdominal wall, lordosis and arching of the back, is produced.
A total of 28 male mice (Charles River, CD-1), weighing 18 to 30 grams, are employed for a time response. The subject animals receive food and water ad libitum. Test compounds are dissolved in distilled water, or suspended in distilled water containing one drop of a suitable surfactant, such as Tween-80.
Four groups of five animals (20 animals) are given the test compound subcutaneously (s.c.) or orally (p.o.) at 15, 30, 45 and 60 minutes prior to administration of the phenyl-p-quinone. A control group (2 animals per group) receive an equal volume of the vehicle. After the administration of the phenyl-p-quinone, the mice are placed separately in one liter beakers, and after five minutes, are observed for ten minutes. The number of writhes for each animal is recorded. The following formula is used to compute the percent inhibition: [formula]
A dose range determination is run in the same manner as the time response except 10 animals per group are tested at the peak time of test drug activity. Fifty animals, 4 test drug groups, and a vehicle control are employed. Animals are dosed and tested in a randomized manner. The time period with the greatest percent of inhibition is considered the peak time.

[2] = tested on: carrageenan-induced rat paw edema; assay: carrageenan-induced rat paw edema antiinflammatory assay; type: in vivo; conditions: screening dose of 100 mg/kg, p.o.
[3] = tested on: adjuvant-induced polyarthritis syndrome; assay: adjuvant-induced polyarthritis syndrome in rats; type: in vivo, rat (male Charles River-Wistar Lewis); conditions: rat, p.o., daily for 21 days
Experimental: This activity was measured by a procedure similar to that described by C. M. Pearson and F. D. Wood, Arthritis and Rheumatism, 2, 440 (1959).
Groups of 10 male Charles River-Wistar Lewis rats weighing 150 to 175 g were individually housed and maintained on a regular rat chow diet. Water was given ad libitum. The adjuvant was prepared by suspending 75 mg of Mycobacterium butyricum (Difco Laboratories, Detroit, Mich.) in 10 ml of white paraffin oil with continuous stirring for 2 hours at room temperature prior to administration. Test compounds are prepared by suspending the drug in water, adding one drop of Tween 80 per 10 ml of suspension, and homogenizing. The adjuvant suspension (0.1 ml) was injected into the footpad of the left hind paw of the rat. Test compound suspensions were adminstered orally (10 ml/kg) the day before adjuvant suspension injection and the administration was continued daily for 21 days. One group of ten rats was used for the test drug. Standard, adjuvant-injected control and non-injected control groups were run along with the test drug. Control animals received vehicle (10 ml/kg). Injected and non-injected paw volumes were determined on the day the adjuvant suspension was given, and on subsequent days thereafter (usually days 5, 10, 18, and 21) by the method of C. A. Winter, et al., Proc. Soc. Exp. Biol. Med., 111, 544 (1962).
The percent inhibition of paw volume (injected and non-injected paw) were calculated by the following formula: [formula] The results of the adjuvant-induced polyarthritis syndrome test procedure for several of the compounds of this invention are provided in Table 2.

Structure (SMILES)	Analgesic Activity, % Inhibition of Writhing [1] [%]	Inhibition of Carrageenan-Induced Rat Paw Edema, Percent Inhibition [2] [%]	percent inhibition of paw volume, Adjuvant-Treated Paw ([3]; screening dose of 50 mg/kg) [%]	percent inhibition of paw volume, Non-Injected Paw ([3]; screening dose of 50 mg/kg) [%]	further results
Cc1csc(NC(=O)C2=C(O)c3ccccc3N(c3ccccc3)C2)n1 [Example 10, 1,2-Dihydro-4-hydroxy-N-(4-methyl-2-thiazolyl)-1-phenyl-3-quinolinecarboxamide]	36	–	–	–	–
O=C(Nc1ccccc1)C1=C(O)c2ccccc2N(c2ccccc2)C1 [Example 8, 1,2-Dihydro-4-hydroxy-1-phenyl-N-phenyl-3-quinolinecarboxamide]	–	-28	-5	-26	–
O=C(Nc1ccccn1)c1nc(-c2ccccc2)c2ccccc2c1O [Example 1, 4-Hydroxy-1-phenyl-N-(2-pyridyl)-3-isoquinolinecarboxamide]	–	–	–	–	percent inhibition of paw volume, Adjuvant-Treated Paw ([3]; screening dose of 45 mg/kg): +1%; percent inhibition of paw volume, Non-Injected Paw ([3]; screening dose of 45 mg/kg): -17%
Cc1cccc(NC(=O)c2cn(-c3ccccc3)c3ccccc3c2=O)n1 [Example 19, 1,4-Dihydro-N-(6-methyl-2-pyridyl)-4-oxo-1-phenyl-3-quinolinecarboxamide]	35	–	–	–	–
O=C(Nc1ccccn1)c1cn(-c2ccccc2)c2ccccc2c1=O [Example 13, 1,4-Dihydro-4-oxo-1-phenyl-N-(2-pyridyl)-3-quinolinecarboxamide]	–	-25	–	–	–
O=C(Nc1cccc(Cl)c1)c1nc(-c2ccccc2)c2ccccc2c1O [Example 3, N-(3-Chlorophenyl)-4-hydroxy-1-phenyl-3-isoquinolinecarboxamide]	51	–	–	–	–
O=C(Nc1cnccn1)C1=C(O)c2ccccc2N(c2ccccc2)C1 [Example 9, 1,2-Dihydro-4-hydroxy-1-phenyl-N-(2-pyrazinyl)-3-quinolinecarboxamide]	31	-24	–	–	–
Cc1csc(NC(=O)c2cn(-c3ccccc3)c3ccccc3c2=O)n1 [Example 18, 1,4-Dihydro-N-(4-methyl-2-thiazolyl)-4-oxo-1-phenyl-3-quinolinecarboxamide]	–	-28	-12	-26	–
O=C(Nc1ccc(Br)cn1)C1=C(O)c2ccccc2N(c2ccccc2)C1 [Example 12, N-(5-Bromo-2-pyridyl)-1,2-dihydro-4-hydroxy-1-phenyl-3-quinolinecarboxamide]	39	–	-2	-22	–
O=C(Nc1cnccn1)c1cn(-c2ccccc2)c2ccccc2c1=O [Example 17, 1,4-Dihydro-4-oxo-1-phenyl-N-(2-pyrazinyl)-3-quinolinecarboxamide]	–	-23	-7	-23	–
O=C(Nc1ccc(Cl)cn1)c1nc(-c2ccccc2)c2ccccc2c1O [Example 4, N-(5-Chloro-2-pyridyl)-4-hydroxy-1-phenyl-3-isoquinolinecarboxamide]	57	–	-22	-38	–
CC(=O)Oc1ccccc1C(=O)O [Aspirin, reference compound]	–	-29	-22	-33	ED50 ([1]; Mus musculus, sc, read-out: ED50 (dose effecting 50% inhibition of writhing)): 32.8 mg/kg
Cc1ccc(NC(=O)c2cn(-c3ccccc3)c3ccccc3c2=O)nc1 [Example 20, 1,4-Dihydro-N-(5-methyl-2-pyridyl)-4-oxo-1-phenyl-3-quinolinecarboxamide]	30	–	–	–	–
